Measured values reported in patent US20130072459A1, “PHARMACEUTICAL COMPOSITION FOR THE PREVENTION OR THE TREATMENT OF NON-ALCOHOLIC FATTY LIVER DISEASE AND THE METHOD FOR PREVENTION OR TREATMENT OF NON-ALCOHOLIC FATTY LIVER DISEASE USING THE SAME” (priority 2010, published 2013).

Assays:
[1] = test system: high fat diet-induced simple steatosis; test: Non-alcoholic fatty liver-preventing effects on high fat diet-induced simple steatosis in mice (oral, 28 days); format: in vivo, C57BL/6 mice; conditions: for Triglyceride increase inhibition (%) relative to high fat diet-fed group / Triglyceride increment (%) relative to standard diet-fed group: 28 days, high fat diet; for lipid droplets in liver tissue sample (histological evaluation), result in words: HE staining, FIG. 8; for maximum decrement of the hepatic triglyceride content relative to the high fat diet-fed group: maximum over the doses tested
Procedure: 7-week old male C57BL/6 mice were stabilized and then divided into 9 groups (n=9) according to the body weight and blood glucose level. A standard diet-fed group and a high fat diet-fed group were orally administered a vehicle solution (0.5% MC (methylene cellulose)) of each diet once a day at a dose of 10 ml/kg, and the remaining groups were orally given once a day for 28 days a high fat diet in conjunction with tartrate of Compound 1 at doses of 30, 100 and 300 mg/kg, sitagliptin phosphate at doses of 100 and 300 mg/kg, and vildagliptin at doses of 100 mg/kg and 300 mg/kg, respectively, according to the designated groups. 24 hours after the final oral administration, animals were dissected and the excised liver was homogenized in a 5(v/v) % Triton-X solution to which a triglyceride working reagent was then added, followed by measurement of an absorbance at 540 nm to determine the content of triglyceride (Table 2). In addition, a portion of the excised liver was fixed in a 10(v/v) % formalin solution and then a tissue sample was prepared, followed by hematoxylin & eosin(HE) staining and photographing (FIG. 8).

[2] = test system: high fat diet-induced simple steatosis; test: Preventive effects on high fat diet-induced simple steatosis in mice (drug-mixed diet, 8/16/24 weeks); format: in vivo, C57BL/6 mice; conditions: for serum alanine aminotransferase (ALT), result in words: at 16 weeks and 24 weeks; for serum alanine aminotransferase (ALT), result in words / hepatic triglyceride content, result in words: vs high fat diet-fed group; for hepatic triglyceride content, result in words: hepatic triglyceride analysis and histological analysis
Procedure: 6-week old male C57BL/6 mice were stabilized and then divided into 5 groups. One group was given a standard diet containing 10% fat (trade name: D12450B, manufactured by Research Diets), and one group was given a high fat diet containing 60% fat (trade name: D12492, manufactured by Research Diets). Remaining 3 groups as drug-treated groups were given a drug-mixed diet specially formulated by mixing a high fat diet and a drug. With regard to tartrate of Compound 1, in order to supply 100 mg/kg and 300 mg/kg which are daily target doses of tartrate of Compound 1 based on the daily average high fat diet consumption amount, diets were formulated by mixing a high fat diet and 0.2% by weight and 0.5% by weight of tartrate of Compound 1, respectively. With regard to sitagliptin phosphate, in order to supply 300 mg/kg which is a daily target dose based on the daily average high fat diet consumption amount, a diet was formulated by mixing a high fat diet and about 0.5% by weight of sitagliptin phosphate. Individual drug-treated groups were given the drug-mixed diets thus formulated. 8 weeks, 16 weeks, and 24 weeks after a supply of each diet, animals were dissected and sera were separated. Then, serum ALT levels (alanine aminotransferase, GPT, glutamic pyruvate transaminase) were measured using a blood analyzer (Table 1 and FIG. 1). The excised liver was homogenized in a 5(v/v) % Triton-X solution, and a triglyceride working reagent [which was prepared by mixing a free glycerol reagent (F6428, Sigma) and a triglyceride reagent (T2449, Sigma) in a ratio of 4:1(v/v)] was added thereto, followed by measurement of an absorbance at 540 nm to determine the content of triglyceride (Table 1 and FIG. 2). In addition, in order to observe histological fat distribution, a portion of the excised liver was fixed in a 10(v/v) % formalin solution and then a tissue sample was prepared, followed by hematoxylin & eosin staining and photographing using an image analysis program (computerized image analysis) (FIG. 3, the violet-stained portion represents a normal liver tissue, and white-stained portion represents lipid droplets).

[3] = test system: activated hepatic stellate cells; test: Expression of activity indicator proteins (TGFβ1, α-SMA) in activated hepatic stellate cells, Western blot; format: cell-based, rat (Wistar); conditions: for 1 ng/mL TGFβ1-induced protein expression inhibition rate, TGFβ1 / 1 ng/mL TGFβ1-induced protein expression inhibition rate, α-SMA: 100 μM compound, 7 days, N = 3, corrected by β-actin; for protein expression levels of TGFβ1 and α-SMA, result in words: hTGF-β1-activated rat hepatic stellate cells
Procedure: An inhibitory action of the compounds of the present invention on the activation of hepatic stellate cells was tested according to the following cell culture method. Male rats (Wistar rats), weighing 500 to 700 g, were anesthetized, followed by an abdominal incision, and cannulae were connected to hepatic portal veins, followed by sequential perfusion with a Hank's Balanced Salt Solution (HBSS) containing heparin and an HBSS containing type 1 collagenase. After the perfusion was complete, the liver was excised, ground with surgical scissors, and added to an HBSS containing type 1 collagenase, followed by shaking culture at 37° C. for 15 minutes. The completely ground liquid-state liver tissue was passed through gauze and centrifuged at 500 g for 10 minutes. The resulting mingled cell precipitate was washed with a phosphate buffer, followed by centrifugation at 100 g for 5 minutes, and the supernatant was collected. The supernatant was further centrifuged at 500 g for 10 minutes to obtain a precipitate to which a 9:1 (v/v) mixture of a Ficoll liquid (GE Healthcare) and a Percoll liquid (GE Healthcare) was added, followed by mixing. A phosphate buffer was gently placed on the mixed layer, followed by centrifugation at 1,400 g for 15 minutes. Then, the cell layer formed between the upper layer and the lower layer was recovered and washed once with a Dulbecco's Modified Eagle Medium (DMEM) containing 10(v/v) % fetal bovine serum. The resulting cells were added at a cell density of 3.1×10^5 cells/cm^2, the medium was exchanged with a fresh medium after 24 hours, and cultured for 7 days with exchange of the medium at intervals of 2 to 3 days. Then, the drugs were treated at specified concentrations in a medium containing 1 ng/ml of a human transforming growth factor (TGF) β1 and a medium containing no TGF β1. TGF β1 was dissolved in dimethylsulfoxide (DMSO) to a concentration 1.000-fold higher than the desired treatment concentration of the drug, 1.000-fold diluted in a medium to be a 1-fold (1×) volume, and then treated on cells. After 7 days of the drug treatment, the medium was harvested and washed with a phosphate buffer. A buffer containing a surfactant was added thereto and the cells were lysed. Then, proteins were quantified, electrophoresed on a 4-12% Bis-Tris gel (Invitrogen), and transferred to a nitrocellulose membrane. The transferred proteins were reacted with primary antibodies specific for α-smooth muscle actin (α-SMA) or TGFβ1, and then reacted with horse radish peroxidase-conjugated specific secondary antibodies. The expression level of the target protein was confirmed using a chemiluminescent liquid and corrected in terms of actin (β-actin) expression level (FIG. 9). The decrement of observed protein expression by 100 μM of individual compounds of the present invention was expressed as a percentage drug-induced decrement, based an increment of protein expression in the TGFβ1-treated positive control group relative to the negative control group to which only DMSO was added (Table 3).

[4] = 8 weeks, high fat diet + 0.5% drug (target 300 mg/kg/day)
[5] = 16 weeks, high fat diet + 0.5% drug (target 300 mg/kg/day)
[6] = 24 weeks, high fat diet + 0.5% drug (target 300 mg/kg/day)
[7] = 8 weeks, high fat diet + 0.2% drug (target 100 mg/kg/day)
[8] = 16 weeks, high fat diet + 0.2% drug (target 100 mg/kg/day)
[9] = 24 weeks, high fat diet + 0.2% drug (target 100 mg/kg/day)

| SMILES | Triglyceride increase inhibition (%) relative to high fat diet-fed group ([1]; 100 mg/kg oral once a day) [%] | Triglyceride increment (%) relative to standard diet-fed group ([1]; 100 mg/kg oral once a day) [%] | Triglyceride increase inhibition (%) relative to high fat diet-fed group ([1]; 300 mg/kg oral once a day) [%] | Triglyceride increment (%) relative to standard diet-fed group ([1]; 300 mg/kg oral once a day) [%] | lipid droplets in liver tissue sample (histological evaluation), result in words [1] | maximum decrement of the hepatic triglyceride content relative to the high fat diet-fed group [1] [%] | Hepatic TG [2, 4] [mg/g wet liver] | Plasma ALT [2, 4] [U/L] | Hepatic TG [2, 5] [mg/g wet liver] | Plasma ALT [2, 5] [U/L] | Hepatic TG [2, 6] [mg/g wet liver] | Plasma ALT [2, 6] [U/L] | serum alanine aminotransferase (ALT), result in words [2] | hepatic triglyceride content, result in words [2] | 1 ng/mL TGFβ1-induced protein expression inhibition rate, TGFβ1 [3] [%] | 1 ng/mL TGFβ1-induced protein expression inhibition rate, α-SMA [3] [%] | protein expression levels of TGFβ1 and α-SMA, result in words [3] | further results |
| --- | --- | --- | --- | --- | --- | --- | --- | --- | --- | --- | --- | --- | --- | --- | --- | --- | --- | --- |
| N[C@@H](CC(=O)N1CCn2c(nnc2C(F)(F)F)C1)Cc1cc(F)c(F)cc1F [sitagliptin phosphate, sitagliptin] | 61 | 21 | 15 | 45 | reduction of lipid droplets | 61 | 11.8 ± 2.7 | 26.5 ± 1.8 | 10.0 ± 1.2 | 22.2 ± 1.3 | 36.8 ± 6.6 | 27.0 ± 1.7 | significant decreases | significant decrease | −6 ± 51.9 | 46 ± 7.3 | lowered | – |
| CC(C)(C)OC[C@@H]1C(=O)NCCN1C(=O)C[C@H](N)Cc1cc(F)c(F)cc1F [tartrate of Compound 1, (R)-4-[(R)-3-amino-4-(2,4,5-trifluorophenyl)-butanoyl]-3-(t-butoxymethyl)piperazin-2-one] | 12 | 47 | 81 | 11 | reduction of lipid droplets | 81 | 7.4 ± 2.0 | 39.3 ± 3.6 | 15.8 ± 2.0 | 27.5 ± 1.5 | 15.1 ± 3.5 | 43.8 ± 4.3 | significant decreases | significant decrease | 78 ± 17.2 | 25 ± 1.9 | lowered | Triglyceride increase inhibition (%) relative to high fat diet-fed group ([1]; 30 mg/kg oral once a day): 34%; Triglyceride increment (%) relative to standard diet-fed group ([1]; 30 mg/kg oral once a day): 35%; Hepatic TG [2, 7]: 15.5 ± 2.0 mg/g wet liver; Plasma ALT [2, 7]: 20.6 ± 0.9 U/L; Hepatic TG [2, 8]: 21.5 ± 0.7 mg/g wet liver; Plasma ALT [2, 8]: 20.5 ± 1.2 U/L; Hepatic TG [2, 9]: 38.2 ± 5.8 mg/g wet liver; Plasma ALT [2, 9]: 37.5 ± 4.2 U/L; concentration dependence of protein expression decrement of TGFβ1 and α-SMA, result in words ([3]; FIG. 9): increased with a higher concentration |
